Laboratory results as given in patent US9376391B2, “Difluoromethyl-nicotinic-tetrahydronaphthyl carboxamides as fungicides” (BAYER CROPSCIENCE AKTIENGESELLSCHAFT, priority 2012, dated 2016).

Tests used:
[1] = log P by HPLC on reversed phase columns (EEC directive 79/831 Annex V.A8); format: physicochemical; settings: HPLC/LC-MS at pH 2.7, 0.1% formic acid in water / acetonitrile, gradient 10% to 95%
[2] = test system: Puccinia recondita; assay: In vivo preventive test on Puccinia recondita (brown rust on wheat); settings: wheat, spray, graded 12 days after contamination vs control plants
Protocol: In Vivo Preventive Test on Puccinia recondita (Brown Rust on Wheat) […] Wheat plants (“Scipion” variety), sown in starter cups on a 50/50 peat soil-pozzolana substrate and grown at 22° C., are treated at the 1-leaf stage (10 cm height) by spraying with the active ingredient prepared as described above. Plants, used as controls, are treated with the mixture of acetone/tween/DMSO/water not containing the active material. After 24 hours, the plants are contaminated by spraying the leaves with an aqueous suspension of Puccinia recondita spores (100 000 spores per ml). The spores are collected from an infected plant and are suspended in water containing 2.5 ml/1 of Tween 80 at 10%. The contaminated wheat plants are incubated for 24 hours at 20° C. and at 100% relative humidity, and then for 10 days at 20° C. and at 70-80% relative humidity. Grading (% of efficacy) is carried out 12 days after the contamination, in comparison with the control plants.

[3] = test system: Uromyces appendiculatus; assay: In vivo preventive test on Uromyces appendiculatus (bean rust); settings: preventive spray, bean plants, grading 11 days after contamination
Protocol: In Vivo Preventive Test on Uromyces appendiculatus (Bean Rust) […] Bean plants (“Saxa” variety), sown in starter cups on a 50/50 peat soil-pozzolana substrate and grown at 24° C., are treated at the 2-leaf stage (9 cm height) by spraying with the active ingredient prepared as described above. Plants, used as controls, are treated with the mixture of acetone/tween/DMSO/water not containing the active material. After 24 hours, the plants are contaminated by spraying the leaves with an aqueous suspension of Uromyces appendiculatus spores (150 000 spores per ml). The spores are collected from infected plants and are suspended in water containing 2.5 ml/1 of Tween 80 at 10%. The contaminated bean plants are incubated for 24 hours at 20° C. and at 100% relative humidity, and then for 10 days at 20° C. and at 70-80% relative humidity. Grading (% of efficacy) is carried out 11 days after the contamination, in comparison with the control plants.

[4] = Table 2, amines of formula (III-a)

Structure (SMILES) | logP^[a] ([1]; Table 1, formula (I)) | further results
CC(C)(C)CC1CC(C)(C)c2cccc(N)c21 (stereo not drawn) [III-a-6] | – | logP^[a] [1, 4]: 4.98^[a]
CC1CC(C)(C)c2cccc(NC(=O)c3c(C(F)F)ccnc3C(F)F)c21 (stereo not drawn) [Example 28] | 3.79^[a] | –
CCCCON=C1CC(C)c2c(NC(=O)c3cc(C)cnc3C(F)F)cccc21 (racemic) [Example 53] | 3.46^[a] | –
CC1CC(C)(C)c2c(Cl)ccc(NC(=O)c3cccnc3C(F)F)c21 (stereo not drawn) [Example 16] | 3.73^[a] | –
Cc1cnc(C(F)F)c(C(=O)Nc2cccc3c2CC(C(C)C)C3(C)C)c1 (racemic) [Example 44] | – | Eff. % ([2]; dose 500 ppm): 83%; Eff. % ([3]; 500 ppm): 93%
CCC1(C)CC(C)c2c(NC(=O)c3ccc(Cl)nc3C(F)F)cccc21 (mixture of isomers) [Example 83] | 4.36^[a] | Eff. % ([2]; dose 100 ppm): 83%; Eff. % ([3]; 100 ppm): 72%
CC1(C)CC(C(F)F)c2c(N)cccc21 (stereo not drawn) [III-a-9] | – | logP^[a] [1, 4]: 2.75^[a]
CC1c2c(cccc2NC(=O)c2ccc(Cl)nc2C(F)F)CC1(C)C (stereo not drawn) [Example 87] | 3.96^[a] | –
CC(C)C1Cc2c(NC(=O)c3ccc(Cl)nc3C(F)F)cccc2C1(C)C (racemic) [Example 45] | 4.77^[a] | Eff. % ([2]; dose 500 ppm): 89%; Eff. % ([3]; 500 ppm): 88%
CCC1OC(C)(C)c2cccc(NC(=O)c3ccc(Cl)nc3C(F)F)c21 (racemic) [Example 74] | 3.09^[a] | Eff. % ([2]; dose 100 ppm): 72%
Cc1cnc(C(F)F)c(C(=O)Nc2cccc3c2C(C)CC32CC2)c1 (racemic) [Example 54] | 3.31^[a] | –
CC1CC(C)(C)c2cccc(NC(=O)c3ccc(Cl)nc3C(F)F)c21 (racemic) [Example 18] | 3.99^[a] | Eff. % ([2]; dose 500 ppm): 89%
CCC1OC(C)(C)c2cccc(NC(=O)c3cc(C)cnc3C(F)F)c21 (racemic) [Example 73] | 2.64^[a] | Eff. % ([2]; dose 100 ppm): 78%
CCC1OC(CC)(CC)c2cccc(NC(=O)c3cc(C)cnc3C(F)F)c21 (racemic) [Example 72] | 3.52^[a] | –
Cl.Nc1cccc2c1C(=C(Cl)Cl)CC2 [III-a-3] | – | logP^[a] [1, 4]: 3.42^[a]
Cc1cnc(C(F)F)c(C(=O)Nc2cccc3c2C(C(C)C)OC3(C)C)c1 (racemic) [Example 75] | 3.00^[a] | –
CC(C)C1Cc2c(NC(=S)c3ccc(Cl)nc3C(F)F)cccc2C1(C)C (stereo not drawn) [Example 66] | 5.11^[a] | Eff. % ([2]; dose 100 ppm): 98%; Eff. % ([3]; 100 ppm): 85%
CC(C)(C)CC1CCc2cccc(N)c21.Cl (stereo not drawn) [III-a-8] | – | logP^[a] [1, 4]: 4.04^[a]
CC1OC(C)(C)c2cccc(NC(=O)c3ccc(Cl)nc3C(F)F)c21 (racemic) [Example 24] | 2.77^[a] | Eff. % ([2]; dose 500 ppm): 89%; Eff. % ([3]; 500 ppm): 100%
Cc1cnc(C(F)F)c(C(=O)Nc2cccc3c2C(C)CC3(C)C)c1 (stereo not drawn) [Example 21] | 3.55^[a] | Eff. % ([2]; dose 500 ppm): 72%; Eff. % ([3]; 500 ppm): 88%
Cc1cnc(C(F)F)c(C(=O)Nc2cccc3c2CC(C)(C)C3C)c1 (stereo not drawn) [Example 63] | 3.65^[a] | Eff. % ([2]; dose 500 ppm): 83%
CON=C1CC(C)c2c(NC(=O)c3cc(C)cnc3C(F)F)cccc21 (stereo not drawn) [Example 29] | 2.61^[a] | –
CCC1(CC)Cc2c(NC(=O)c3cc(C)cnc3C(F)F)cccc2C1C (stereo not drawn) [Example 61] | 4.39^[a] | Eff. % ([2]; dose 500 ppm): 78%
CON=C1CCc2c(NC(=O)c3cccnc3C(F)F)cccc21 [Example 5] | 2.15^[a] | –
O=C(Nc1cccc2c1C(=C(Cl)Cl)CC2)c1cccnc1C(F)F [Example 97] | 2.96^[a] | –
CC1CC(C)(C)c2c(F)ccc(NC(=O)c3ccc(Cl)nc3C(F)F)c21 (stereo not drawn) [Example 19] | 4.09^[a] | Eff. % ([2]; dose 500 ppm): 100%; Eff. % ([3]; 500 ppm): 79%

Structure (SMILES) | logP^[a] ([1]; Table 1, formula (I)) | further results
Cc1cnc(C(F)F)c(C(=O)Nc2cccc3c2C(C)C(C)C3(C)C)c1 (stereo not drawn) [Example 35] | 3.79^[a] | Eff. % ([2]; dose 500 ppm): 93%
CC1CC(=C(Cl)Cl)c2cccc(NC(=O)c3cccnc3C(F)F)c21 (stereo not drawn) [Example 99] | 3.13^[a] | –
CC1CC(=CCl)c2cccc(NC(=O)c3cccnc3C(F)F)c21 (stereo not drawn) [Example 98] | 3.71^[a] | –
CCCC1CC(C)c2c(NC(=O)c3cccnc3C(F)F)cccc21 (stereo not drawn) [Example 89] | 3.79^[a] | –
CC1CC2(CC2)c2cccc(NC(=O)c3ccc(Cl)nc3C(F)F)c21 (racemic) [Example 58] | 3.73^[a] | Eff. % ([2]; dose 500 ppm): 81%; Eff. % ([3]; 500 ppm): 95%
Cc1cnc(C(F)F)c(C(=S)Nc2cccc3c2CC(C(C)C)C3(C)C)c1 (stereo not drawn) [Example 67] | 4.74^[a] | Eff. % ([2]; dose 100 ppm): 89%; Eff. % ([3]; 100 ppm): 100%
CC(C)CC1CCc2c(NC(=O)c3cccnc3C(F)F)cccc21 (racemic) [Example 41] | 3.94^[a] | Eff. % ([2]; dose 500 ppm): 98%; Eff. % ([3]; 500 ppm): 100%
CC1(C)CCc2c(NC(=O)c3cccnc3C(F)F)cccc21 [Example 92] | 3.08^[a] | –
CC1(C)CC(C(Cl)Cl)c2c(NC(=O)c3cccnc3C(F)F)cccc21 (stereo not drawn) [Example 96] | 3.97^[a] | –
Cc1cnc(C(F)F)c(C(=O)Nc2cccc3c2C(C)OC3(C)C)c1 (stereo not drawn) [Example 22] | 2.37^[a] | Eff. % ([2]; dose 500 ppm): 83%
CCON=C1CCc2c(NC(=O)c3cccnc3C(F)F)cccc21 [Example 8] | 2.54^[a] | Eff. % ([2]; dose 500 ppm): 78%
CC1CC(C(C)(C)C)c2cccc(NC(=O)c3cccnc3C(F)F)c21 (mixture of isomers) [Example 93] | 3.94^[a] | –
CC1(C)OCc2c(NC(=O)c3cccnc3C(F)F)cccc21 [Example 17] | 2.01^[a] | Eff. % ([2]; dose 500 ppm): 100%; Eff. % ([3]; 500 ppm): 100%
Cc1cnc(C(F)F)c(C(=O)Nc2cccc3c2C(C)C(C)(C)C3)c1 (stereo not drawn) [Example 86] | 3.59^[a] | –
CC1CC(C)(C)c2ccc(F)c(NC(=O)c3cccnc3C(F)F)c21 (stereo not drawn) [Example 100] | 3.26^[a] | –
CCC1(CC)OC(C)c2c(NC(=O)c3cc(C)cnc3C(F)F)cccc21 (stereo not drawn) [Example 26] | 3.15^[a] | –
CCC1Cc2c(NC(=S)c3cc(C)cnc3C(F)F)cccc2C1(C)C (stereo not drawn) [Example 70, 2-(difluoromethyl)-N-(2-ethyl-1,1-dimethyl-2,3-dihydro-1H-inden-4-yl)-5-methylpyridine-3-carbothioamide] | – | Eff. % ([2]; dose 100 ppm): 98%; Eff. % ([3]; 100 ppm): 100%; chromatographic logP ([1]; reversed phase HPLC columns, Table 1, formula (I)): 4.41
CC1(C)CC(C(F)F)c2c(NC(=O)c3cccnc3C(F)F)cccc21 (stereo not drawn) [Example 94] | 3.15^[a] | –
Cc1cnc(C(F)F)c(C(=O)Nc2cccc3c2CC(C)(C)C3)c1 [Example 48] | 3.35^[a] | –
CC(C)(C)CC1CC(C)(C)c2cccc(NC(=O)c3cccnc3C(F)F)c21 (stereo not drawn) [Example 95] | 4.54^[a] | –
CC1CC(C)(C)c2ccc(F)c(N)c21 (stereo not drawn) [III-a-10] | – | logP^[a] [1, 4]: 3.71^[a]
CC1CC(=C(Cl)Cl)c2cccc(N)c21.Cl (stereo not drawn) [III-a-4] | – | logP^[a] [1, 4]: 3.60^[a]
CC1(C)CC(C(Cl)Cl)c2c(N)cccc21 (stereo not drawn) [III-a-7] | – | logP^[a] [1, 4]: 4.39^[a]
Cc1cnc(C(F)F)c(C(=S)Nc2cccc3c2C(C)CC32CC2)c1 (racemic) [Example 68] | 3.68^[a] | Eff. % ([2]; dose 100 ppm): 100%
CC1CC(C)(C)c2cccc(NC(=O)c3cc(Cl)cnc3C(F)F)c21 (racemic) [Example 55] | 4.06^[a] | Eff. % ([2]; dose 500 ppm): 72%
